Assay results from ChEMBL document CHEMBL1159024, “Inhibitory effect of tannic acid on gastric H+,K(+)-ATPase” (J Nat Prod, 1992).
The source made the active and inactive calls. No cut-off for these calls is given here.

Columns and labels:
[1] = organism: Sus scrofa; experiment: Inhibition of H(+)/K(+) ATPase from pig gastric mucosa by non competitive-double reciprocal plot in presence of K+; format: tissue-based
[2] = Inhibition of H(+)/K(+) ATPase from pig gastric mucosa; format: tissue-based, Sus scrofa
[3] = organism: Sus scrofa; experiment: Inhibition of H(+)/K(+) ATPase from pig gastric mucosa by competitive-double reciprocal plot in presence of ATP; format: tissue-based
[4] = Inhibition of K+ dependent pNPPase from pig gastric mucosa; format: tissue-based, Sus scrofa

| SMILES | Activity [1] | IC50 [2] | Activity [3] | IC50 [4] |
| --- | --- | --- | --- | --- |
| O=c1oc2c(O)c(O)cc3c(=O)oc4c(O)c(O)cc1c4c23 [ELLAGIC ACID] | Active | 210 nM | Active | – |
| O=C(OC[C@H]1O[C@@H](OC(=O)c2cc(O)c(O)c(OC(=O)c3cc(O)c(O)c(O)c3)c2)[C@H](OC(=O)c2cc(O)c(O)c(OC(=O)c3cc(O)c(O)c(O)c3)c2)[C@@H](OC(=O)c2cc(O)c(O)c(OC(=O)c3cc(O)c(O)c(O)c3)c2)[C@@H]1OC(=O)c1cc(O)c(O)c(OC(=O)c2cc(O)c(O)c(O)c2)c1)c1cc(O)c(O)c(OC(=O)c2cc(O)c(O)c(O)c2)c1 [TANNIC ACID] | Active | 29 nM | Active | 410 nM |
